The values below come from paper PMC5503785 (Journal of clinical pharmacology, 2017).

For data set [1], the system named is PARP. Conditions: cited from earlier work.
The format of data set [2] is in vivo, human. Conditions: for ω CLR/F (L·h^−1): between-subject variability; for increase in veliparib exposure: covariate model.
For data set [3] the following is noted: fixed in model; fraction renally excreted; cited from earlier work.
The test system of the next data set is CYP2D6. The following applies: in vitro study; cited from earlier work.
Data set [4] deals with PARP.
For data set [5] the following is noted: cited from earlier work.
For data set [6] the following is noted: PBPK simulations, cited from earlier work.
Data set [7] relates to PARP. Conditions: phase 0 study, single dose of veliparib; cited from earlier work.
The mark [8] stands for this setting: bootstrap median, 250 replicates.
Setting [9] is: analysis by Li et al, one-compartment model.
[10] abbreviates: population PK analysis by Salem et al, one-compartment model.
Where [11] appears, read: previously reported, based on NCA.

Like-named read-outs stand apart in the source and are kept apart here.

On to `CC1(c2nc3c(C(N)=O)cccc3[nH]2)CCC(=O)N1` (centres unmarked) [M8], for which the “potency compared to veliparib (fold less potent)” value with PARP [1] was “approximately 5 fold”. In data set [2] (setting [8]), the CLmet came out at 22.7 L/h, the Qmet was 29.0 L/h, the Vc_met is on record as 23.5 L and the Vp_met is 51.3 L. In data set [2] (final model estimate), the CLmet was 22.8 L/h and the Qmet was 29.0 L/h. Besides, the Vc_met in data set [2] (final model estimate, metabolite central volume) is given as 23.6 L. Moreover, in data set [2] (final model estimate, metabolite peripheral volume), the Vp_met is 51.4 L.

`C[C@]1(c2nc3c(C(N)=O)cccc3[nH]2)CCCN1` [veliparib, 2-[(R)-2-methylpyrrolidin-2-yl]-1H-benzimidazole-4-carboxamide]: the frenal in data set [3] is 0.7 (fix). The “expected "true" fraction converted to M8” value in data set [2] (30% non-renal elimination * 72% CYP2D6 share) is given as 22%. In addition, the “accumulation on chronic dosing” value in data set [2] (NCA approach, within dose range tested (50 to 500 mg b.i.d.)) is recorded as “Negligible accumulation”. For the same molecule, the “ω CLR/F (L·h^−1)” value in data set [2] (bootstrap median) and in data set [2] (final model estimate) was 34.7% in each case. For the same molecule, the CL/F in data set [2] (setting [8]) was 17.3 L/h; in data set [5] (setting [9]), 13.3 L/h; in data set [5] (setting [10]), 20.9 L/h; in data set [5] (setting [11]) it was 18 L/h. For the same molecule, the Ka in data set [2] (setting [8]) is 2.02 h⁻¹; in data set [2] (final population PK model estimate, oral veliparib) it was 2.02 h⁻¹. The “LBM effect on Vc/F, power_LBM” value in data set [2] (setting [8]) is listed as 1.21; in data set [2] (final model estimate, covariate exponent) it was 1.21. Besides, the Q/F in data set [2] (setting [8]) and in data set [2] (final model estimate) was 17.9 L/h throughout. Further, the Vc/F in data set [2] (setting [8]) worked out at 99.1 L. In data set [2] (setting [8]), the Vp/F is 47.5 L. Besides, the tlag in data set [2] (setting [8]) is 0.270 h; in data set [2] (final model estimate), 0.272 h. In addition, the “increase in veliparib exposure” value is ~ 10% in data set [2] (mild renal function impairment (~25% decrease in CLCR)) and ~ 20% in data set [2] (moderate renal function impairment (~50% decrease in CLCR)). Besides, the dose proportionality entry in data set [2] (dose level from 50 to 500 mg) is on record as “supported”. Besides, in data set [2] (final model estimate, typical subject LBM 48 kg), the “Vc/F (central volume of distribution)” value was 99.2 L. Also, the “CL/F (total clearance, CLR/F + CLNR/F)” value in data set [2] (final model estimate, typical subject LBM 48 kg, CLCR 95 mL/min) was 17.3 L/h. In data set [2] (fixed in model, fraction metabolized to M8 assumed as 1−frenal), the fm is on record as 0.3 (fix). Moreover, the Vd/F is 147 L in data set [2] (human, plasma, oral, Vd/F (=Vc/F+ Vp/F), final model, standardized to 48 kg LBM and 95 mL/min CLCR); 126 L in data set [5] (setting [9]); 173 L in data set [5] (setting [10]); 145 L in data set [5] (setting [11]). In data set [2] (worked out from non-renal fraction and CYP2D6 share), the “contribution of CYP2D6 metabolism to veliparib total clearance” value is given as ~ 22%. For the same molecule, in the data set with CYP2D6, the “share of overall veliparib metabolism accounted for by CYP2D6” value is ~ 72%. For the same molecule, the “Inhibition of PAR compared with pre-dose baseline” value with PARP [4] (50/50 mg dose level b.i.d., PBMC) is listed as ~ 50%. For the same molecule, in the data set with PARP [4] (500/500 mg dose level b.i.d., PBMC), the “Inhibition of PARP compared with pre-dose baseline” value was ~ 70%. In addition, the “IC50 for PAR reduction (Emax model, veliparib plasma concentration as driver)” value in the data set on PARP [4] (PBMC, estimated with low precision) is 0.03 µg/mL. Moreover, the “inhibition of PAR levels in PBMCs” value in the data set with PARP [4] (dose levels ranging from 50 to 500 mg) was “At least 50%”. Also, the “higher exposure versus extensive metabolizers” value in data set [6] (CYP2D6 poor metabolizers (PM)) is given as ~ 20%. Moreover, the “lower exposure versus extensive metabolizers” value in data set [6] (CYP2D6 ultra-extensive metabolizers (UM)) is recorded as ~ 20%. For the same molecule, the “inhibition of PAR levels in PBMC” value in the data set on PARP [7] is given as “Significant inhibition”.

One may read the CL/F as the apparent clearance, not corrected for the fraction that reaches the circulation. As a reminder, the Vd/F is the volume of distribution divided by bioavailability.
